Experimental findings from ChEMBL document CHEMBL1157815, “Antiproliferative activity of withanolides against human breast cancer cell lines” (2010) are described below.

The GI50 is the concentration giving 50% growth inhibition.

Type in all cases: functional
One assay relates to MCF7. Briefly: Antiproliferative activity against human MCF7 cells expressing estrogen receptor after 48 hrs by SRB assay. The conditions noted are these: MCF7, 48 h.
The test system of a further assay is T47D. Briefly: Antiproliferative activity against human T47D cells expressing estrogen receptor after 48 hrs by SRB assay. (In SRB staining, fixed cells bind dye roughly in proportion to their protein.)
Another assay relates to SK-BR-3. Briefly: Antiproliferative activity against estrogen receptor deficient human SKBR3 cells after 48 hrs by SRB assay. The settings on record: SK-BR-3, 48 h.
The nature of assay [1]: Antiproliferative activity against human MCF7/BUS cells expressing estrogen receptor after 48 hrs by SRB assay.
Another assay has as its system MDA-MB-231. The assay can be described thus: Antiproliferative activity against estrogen receptor deficient human MDA-MB-231 cells after 48 hrs by SRB assay. The conditions noted are these: MDA-MB-231, 48 h.

`CCO[C@@]12C[C@H]3[C@@H](C[C@@H](O)[C@@]4(Cl)CC=CC(=O)[C@]34C)[C@@H]3CC[C@@](O)([C@H](C)[C@@H]([C@@H]4O[C@H](O)[C@@]5(C)O[C@@]45C)O1)[C@]32C`: the GI50 in the assay on MCF7 is 3.9 µM; in the assay on T47D, 13 µM; in the assay on SK-BR-3, 3.4 µM; in assay [1], 5.1 µM; in the assay on MDA-MB-231, 10 µM.

Turning to `CO[C@@]12C[C@@H]3c4c(O)cccc4[C@H](O)C[C@H]3[C@@H]3CC[C@@](O)([C@H](C)[C@@H]([C@@H]4OC(=O)C(C)=C4C)O1)[C@]32C`, the GI50 (in the assay on MCF7; with T47D; in the assay on SK-BR-3; in assay [1]; in the assay with MDA-MB-231) was greater than 100 µM each time.

For `CC1=C(C)C(=O)O[C@@H]([C@](C)(O)[C@]2(O)CC[C@@]3(O)[C@@H]4C[C@H]5O[C@]56[C@@H](O)C=CC(=O)[C@]6(C)[C@H]4CC[C@]23C)C1`, the GI50 in the assay with MCF7 was 1 µM; with T47D, 2.2 µM; in the assay with SK-BR-3 it was 1.7 µM; in assay [1], 1.1 µM; in the assay with MDA-MB-231, 2.1 µM.

For the compound `CCO[C@@]12C[C@H]3[C@@H](C[C@@H](O)[C@@]4(Cl)CC=CC(=O)[C@]34C)[C@@H]3CC[C@@](O)([C@H](C)[C@@H]([C@@H]4OC(=O)C(C)=C4C)O1)[C@]32C` [12-O-ETHYLJABOROSALACTONE 42], the GI50 in the assay with MCF7 is 3 µM; in the assay on T47D, 3.9 µM; in the assay with SK-BR-3 it was 2.5 µM; in assay [1], 3 µM; with MDA-MB-231, 3.7 µM.

As for `CO[C@@]12C[C@H]3[C@@H](C[C@H]4O[C@]45CC=CC(=O)[C@]35C)[C@@H]3CC[C@@](O)([C@@H]([C@H]4CC(C)=C(C)C(=O)O4)CO1)[C@]32C` [12-O-METHYLJABOROSALACTONE 38], the GI50 was 2.9 µM with MCF7; 3.9 µM in the assay on T47D; 2 µM in the assay with SK-BR-3; 2.7 µM in assay [1]; 2.8 µM with MDA-MB-231.

As for `CC[C@@]1(O)C(=O)OCc2c1cc1n(c2=O)Cc2cc3ccccc3nc2-1` [CAMPTOTHECIN], the GI50 with MCF7 stood at 0.28 µM; in the assay on T47D it was 2 µM; with SK-BR-3, 0.15 µM; in assay [1], 0.21 µM; with MDA-MB-231 it was 1.3 µM.

Turning to `O=c1[nH]cc(F)c(=O)[nH]1` [FLUOROURACIL], the GI50 in the assay with MCF7 was found to be 8.3 µM; in the assay on T47D, 47 µM; with SK-BR-3, 3 µM; in assay [1] it was 6.2 µM; with MDA-MB-231, 54 µM.

Turning to `C[C@]12CC[C@H]3C(=C1[C@H]1C[C@@]2(O)[C@](C)([C@H]2C[C@]4(C)O[C@]4(C)[C@H](O)O2)C1)C[C@@H](O)[C@@]1(O)CC=CC(=O)[C@]31C` [JABOROSALACTOL20], the GI50 (with MCF7; in the assay with T47D; with SK-BR-3; in assay [1]; with MDA-MB-231) was greater than 100 µM throughout.

Consider `C[C@@H]1[C@@H]([C@@H]2O[C@H](O)[C@@]3(C)O[C@@]23C)O[C@@]2(O)C[C@H]3[C@@H](C[C@H]4O[C@]45CC=CC(=O)[C@]35C)[C@@H]3CC[C@]1(O)[C@]32C` [JABOROSALACTOL 24], for which the GI50 with MCF7 worked out at 3.6 µM; in the assay on T47D, 6.5 µM; with SK-BR-3 it was 2.3 µM; in assay [1], 2.6 µM; in the assay on MDA-MB-231, 8.7 µM.

Take `C[C@@H]1[C@@H]([C@@H]2O[C@H](O)[C@@]3(C)O[C@@]23C)O[C@@]2(O)C[C@H]3[C@@H](CC=C4CC=CC(=O)[C@@]43C)[C@@H]3CC[C@]1(O)[C@]32C` [JABOROSALACTOL]: the GI50 in the assay with MCF7 came to 14 µM; in the assay on T47D it was 30 µM; in the assay with SK-BR-3, 18 µM; in assay [1] it was 18 µM; with MDA-MB-231, 19 µM.

Regarding `CC1=C(C)[C@]2(OC1=O)C(=O)C(C)=C1CC[C@H]3[C@@H]4C[C@H]5O[C@]56CC=CC(=O)[C@]6(C)[C@H]4C[C@@]2(O)[C@]13C` [JABOROSALACTONE 1], the concentration for 50% growth inhibition (GI50) is 3.2 µM in the assay on MCF7; 3.4 µM in the assay on T47D; 2 µM in the assay on SK-BR-3; 3.3 µM in assay [1]; 2.5 µM in the assay on MDA-MB-231.

For the compound `CC1=C(C)C(=O)O[C@@H]([C@H]2CO[C@@]3(O)C[C@H]4[C@@H](C[C@H]5O[C@]56CCCC(=O)[C@]46C)[C@@H]4CC[C@]2(O)[C@]43C)C1` [JABOROSALACTONE 39], the GI50 in the assay on MCF7 was determined as 25 µM; with T47D, 38 µM; with SK-BR-3 it was 34 µM; in assay [1], 29 µM; in the assay with MDA-MB-231, 35 µM.

On to `CC1=C(C)[C@H]([C@H]2O[C@@]3(O)C[C@H]4[C@@H](C[C@@H](O)[C@@]5(Cl)CC=CC(=O)[C@]45C)[C@@H]4CC[C@@](O)([C@@H]2C)[C@]43C)OC1=O` [JABOROSALACTONE 42], for which the GI50 in the assay with MCF7 stood at 2.4 µM; with T47D, 3.5 µM; in the assay with SK-BR-3 it was 2.5 µM; in assay [1] it was 2.6 µM; in the assay with MDA-MB-231, 3.2 µM.

As to `CC1=C(C)[C@H]([C@H]2O[C@@]3(O)C[C@@H]4c5c(O)cccc5[C@H](O)C[C@H]4[C@@H]4CC[C@@](O)([C@@H]2C)[C@]43C)OC1=O` [JABOROSALACTONE 45], the GI50 (in the assay on MCF7; in the assay on T47D; in the assay with SK-BR-3; in assay [1]; in the assay with MDA-MB-231) was greater than 100 µM in each case.

Regarding `CC1=C(C)C(=O)O[C@]2(C1)O[C@@]1(O)C[C@H]3[C@@H](C[C@H]4O[C@]45CC=CC(=O)[C@]35C)[C@@H]3CC[C@@](O)([C@@H]2C)[C@]31C` [JABOROSALACTONE 46], the GI50 is 2.8 µM in the assay on MCF7; 3.7 µM with T47D; 2.5 µM with SK-BR-3; 2.9 µM in assay [1]; 3.5 µM in the assay with MDA-MB-231.

Consider `CC1=C(C)[C@]2(OC1=O)[C@H](O)[C@@H](C)[C@]1(O)CC[C@H]3[C@@H]4CC=C5CC=CC(=O)[C@]5(C)[C@H]4C[C@@]2(O)[C@@]31C` [JABOROSALACTONE P], for which the GI50 with MCF7 was 35 µM; in the assay with T47D, 61 µM; in the assay on SK-BR-3, 29 µM; in assay [1], 33 µM; in the assay on MDA-MB-231 it was 49 µM.

In the case of `CC1=C(C)C(=O)O[C@@H]([C@H]2CO[C@@]3(O)C[C@H]4[C@@H](C[C@H]5O[C@]56CC=CC(=O)[C@]46C)[C@@H]4CC[C@]2(O)[C@]43C)C1` [JABOROSALACTONE], the GI50 in the assay with MCF7 turned out to be 2.9 µM; in the assay with T47D, 4.1 µM; with SK-BR-3, 2.6 µM; in assay [1], 2.8 µM; in the assay with MDA-MB-231 it was 3.4 µM.

Regarding `CC1=C(C)[C@H]([C@H]2O[C@@]3(O)C[C@H]4[C@@H](C[C@@H](O)[C@@]5(O)CC=CC(=O)[C@]45C)[C@@H]4CC[C@@](O)([C@@H]2C)[C@]43C)OC1=O` [JABOROTETROL], the GI50 (with MCF7; with T47D; with SK-BR-3; in assay [1]; with MDA-MB-231) was greater than 100 µM each time.

As to `C[C@@H](C1=CC(=O)[C@H]2[C@@H]3C[C@H]4O[C@]45CC=CC(=O)[C@]5(C)[C@H]3CC[C@]12C)C1C[C@]2(C)O[C@]2(C)[C@H](O)O1` (stereo not given in full) [SALPICHROLIDE D], the GI50 in the assay on MCF7 was found to be 22 µM; in the assay on T47D, 17 µM; with SK-BR-3 it was 21 µM; in assay [1], 13 µM; in the assay with MDA-MB-231, 21 µM.

Take `C[C@@H](c1cc(O)c2c(c1)CC[C@H]1[C@H]2C[C@@H]2O[C@@]23CC=CC(=O)[C@]13C)[C@@H]1C[C@@H]2O[C@@H]2[C@H](O)O1` [SALPICHROLIDE G]: the GI50 was determined as 5.1 µM in the assay on MCF7; 14 µM in the assay with T47D; 3.4 µM in the assay on SK-BR-3; 5.7 µM in assay [1]; 14 µM in the assay on MDA-MB-231.

Regarding `CC1=C(C)[C@H]([C@H]2O[C@@]3(O)C[C@H]4[C@@H](C[C@H]5O[C@]56CC=CC(=O)[C@]46C)[C@@H]4CC[C@@](O)([C@@H]2C)[C@]43C)OC1=O` [TRECHONOLIDE A], the GI50 with MCF7 stood at 3.9 µM; in the assay with T47D, 4.3 µM; with SK-BR-3 it was 1.9 µM; in assay [1], 3.1 µM; in the assay on MDA-MB-231, 6.3 µM.

Turning to `CC1=C(C)C(=O)O[C@@H]([C@](C)(O)[C@]2(O)CC[C@@]3(O)[C@@H]4C[C@H]5O[C@]56CC=CC(=O)[C@]6(C)[C@H]4CC[C@]23C)C1` [WITHANOLIDE E], the GI50 was 0.31 µM in the assay with MCF7; 0.16 µM in the assay on T47D; 0.71 µM in the assay on SK-BR-3; 0.42 µM in assay [1]; 0.24 µM in the assay on MDA-MB-231.
